Measurements as given in patent US9630984B2, “Compound contained in manuka honey and use of same” (HEALTHCARE SYSTEMS, priority 2011, dated 2017).

Molecular target: T1, human MPO (Homo sapiens, UniProt P05164)
T1 sequence (P05164 49-745): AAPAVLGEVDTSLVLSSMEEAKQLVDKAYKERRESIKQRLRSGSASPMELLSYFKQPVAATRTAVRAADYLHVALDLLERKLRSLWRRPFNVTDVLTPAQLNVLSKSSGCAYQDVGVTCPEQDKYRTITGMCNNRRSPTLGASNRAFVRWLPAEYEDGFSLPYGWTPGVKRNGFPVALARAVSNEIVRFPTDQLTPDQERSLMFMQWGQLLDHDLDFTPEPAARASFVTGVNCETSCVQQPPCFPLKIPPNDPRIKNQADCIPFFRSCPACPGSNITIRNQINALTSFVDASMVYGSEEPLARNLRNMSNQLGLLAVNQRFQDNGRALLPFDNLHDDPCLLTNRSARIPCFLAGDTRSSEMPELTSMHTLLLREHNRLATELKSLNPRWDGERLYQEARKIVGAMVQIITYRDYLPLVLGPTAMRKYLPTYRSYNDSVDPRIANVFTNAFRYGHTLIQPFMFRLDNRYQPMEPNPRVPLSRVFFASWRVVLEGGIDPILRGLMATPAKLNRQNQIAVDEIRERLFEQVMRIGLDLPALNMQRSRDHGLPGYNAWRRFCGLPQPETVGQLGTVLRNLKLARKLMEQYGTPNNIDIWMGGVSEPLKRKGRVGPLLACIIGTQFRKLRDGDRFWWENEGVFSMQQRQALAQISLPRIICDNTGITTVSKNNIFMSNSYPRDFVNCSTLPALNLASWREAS
Assay: MPO inhibition activity: inhibition of halogenation of tyrosine residues of biotin-labeled BSA (ELISA with 3A5 antibody)
Type: biochemical
Settings: sample prepared to 5 mM, 10 μl in about 110 μl reaction; 30 minutes at 37° C.; absorbancy 450 nm/550 nm
Method: The MPO inhibition activities of the isolated MGGD and its aglycon MSYR were measured by evaluating inhibition of the halogenation of the tyrosine residues of a biotin-labeled protein (bovine serum albumin). It is thus possible to measure either inhibition of the MPO enzyme itself or the ability to extinguish or capture hypobromous acid (HOBr) and other active species produced by the enzyme.
The necessary solutions and the like for the reaction were prepared as follows.
(2) Xanthine oxidase (XOD) (Sigma X4500-25UN) diluted 100× with water.
(4) Biotin-BSA (Sigma-A6043-10MG) dissolved to 1 mg/ml in 0.1 M phosphate buffer with 200 μM NaBr and 200 mM NaCl added in advance, then freeze dried for storage, and diluted to 0.4 mg/ml before use.
(5) Sample prepared to 5 mM.
(6) Reduced glutathione (GSH) (Sigma G-6529) as a positive control.
(7) L-methionine, dissolved in water to 10 mM. […]
50 μl of a 10 μg/ml concentration 3A5 antibody (Nikken Seil) recognizing dihalogenated tyrosines was coated as a primary antibody on each microplate, and left standing overnight at 4° C. […] This was then left standing again for 45 minutes at 37° C. and washed, after which 100 μl of a TMB (3,3′-5,5′-tetramethylbentidine) coloring reagent (A liquid/B liquid=1/1) was added, and absorbancy was measured at 450 nm/550 nm for about 10 minutes with a microplate reader.

With `COC(=O)c1cc(OC)c(O[C@@H]2O[C@H](CO[C@@H]3O[C@H](CO)[C@@H](O)[C@H](O)[C@H]3O)[C@@H](O)[C@H](O)[C@H]2O)c(OC)c1` [MGGD, methyl-4-O-[β-D-glucopyranosyl-(1→6)-β-D-glucopyranosyl]-3,5-dimethoxybenzoate] the “MPO enzyme inhibition activity (halogenated tyrosine production vs control with no added antioxidant)” value was “exhibited MPO enzyme inhibition activity”.
